Each structure is given as a SMILES string. Structures can show the parent of a compound that is named as a salt. Where two headings read alike, the source gives them in different places.

Consider two molecules from patent publication US6127409A, “Ascorbic acid derivative and vitamin C preparation containing the same” (priority 1997, dated 2000).

Data set [1] is described as follows: Stability: residual ratio (concentration after storage/initial concentration) by HPLC after standing at room temperature for 10 days. Format: physicochemical. The settings on record: water. As for the experimental part:
Then, their residual ratios (concentration after storage/initial concentration) were determined by HPLC through a column Shodex Asahipak NH2P-50 4E (trade name, manufactured by Showa Denko KK) to evaluate stability.

Data set [2] has as its system normal human adult mamma epidermal Keratinocyte. Format: cell-based. The settings on record: 20 hours culture. How it is done:
About 6×10^5 cells of a normal human adult mamma epidermal Keratinocyte (available from Kurashiki Boseki KK) were sowed on a 60 mm plate and cultured in a serum-free culturing medium (manufactured by Kurashiki Boseki KK) for 2 hours, and after displacing with the same culturing medium having added thereto from 2 to 50 μM of an ascorbic acid or a derivative thereof, further cultured for 20 hours. The cells were collected by trypsin treatment, and the number of cells was counted by a Coulter Counter Model DN (trade name, manufactured by Coulter Electronics). The cells thus collected were washed with Hank's equilibrium salt solution, pulverized in an ultrasonic homogenizer, filtered through a Mol-cut II (UFPlLCC) (trade name, produced by Nippon Milipore KK) and analyzed by HPLC through a column Shodex Asahipak NH2P-50 4E (trade name, produced by Showa Denko KK). The amount of ascorbic acid and derivatives thereof was measured to determine the intracellular cumulative amount. As a control, culturing was performed in the same manner as above except for not adding ascorbic acid or a derivative thereof, and the ascorbic acid was quantitatively determined. The difference in the intracellular ascorbic acid cumulative amount between the case where ascorbic acid or a derivative thereof was added and the case where ascorbic acid or a derivative thereof was not added is shown in Table 2. […]

For `O=C1O[C@H]([C@@H](O)CO)C(O)=C1OP(=O)([O-])[O-].[Mg+2]` [L-Ascorbic acid-2-phosphate magnesium salt], in data set [1] (2 mM aqueous solution, room temperature, 10 days, HPLC, read-out: Stability (residual ratio: concentration after storage/initial concentration)), the remaining at 240 h, 2000 µM is 97%. Further, the “Intracellular Cumulative Amount (difference from not added)” value is listed as < 0.0002 Pmole/cell in data set [2] (addition amount 2 μM) and 0.0022 Pmole/cell in data set [2] (addition amount 50 μM).

In the case of `CCCCCCCCCCCCCCCC(=O)OC[C@H](O)[C@H]1OC(=O)C(OP(=O)(O)O)=C1O` [L-Ascorbic acid-2-phosphate-6-palmitate magnesium salt], in data set [1], the remaining at 240 h, 2000 µM turned out to be 98%.
